According to patent US20260076948A1, “TREATMENT OF DIABETIC RETINOPATHY USING ENDOTHELIN RECEPTOR ANTAGONISTS” (Perfuse Therapeutics, Inc., priority 2019, published 2026):

Assays:
[1] = system: Morrison's rat model of glaucoma (elevated IOP); assay: Morrison's rat model of glaucoma (RGC counts, PERG); format: in vivo, Brown Norway rats; settings: topical eye drops 100 μg per dose, five days a week, four weeks
From the text: Adult male and female retired breeder Brown Norway rats (approximate age groups of 8 to 11 months) were obtained from Envigo (Indianapolis, IN). Baseline IOP measurements and pattern electroretinogram (PERG) amplitudes were collected prior to the surgery for elevation of IOP (to ensure that the IOP and PERG amplitudes were in the expected range of values). IOP was elevated in one eye (left eye) of the rats, while the corresponding right eyes served as contralateral controls. The Morrison method to elevate IOP in rats was carried out by injection of 50 μL. of hypertonic saline through the episcleral veins to sclerose the trabecular meshwork. IOP was measured twice a week throughout the entire duration of the experiment. […] After detecting an elevation of IOP for two consecutive days, topical administration of eye drops (20 μL (100 μg) per dose of the tested compounds in the IOP elevated eye) was commenced and carried out for five days a week for a total of four weeks. In the 4th week of treatment, PERG analysis was carried out and rats were sacrificed by an overdose of pentobarbital (Fatal-Plus). Aqueous humor was collected from the rat eyes, frozen and shipped for analysis. Retinal flat mounts were prepared, immunostained with the RGC marker, Brn3a antibody and surviving RGCs were counted in two eccentricities (central and peripheral).
For this study, the Morrison's model was used to induce ocular hypertension in adult male retired breeder Brown Norway rats as previously described by Morrison et al., (Morrison J C, Moore C G, Deppmeier L M, Gold B G, Meshul C K, Johnson E C. A rat model of chronic pressure-induced optic nerve damage. Exp Eye Res. 1997; 64(1):85-96).
The immunostained retinal flat mounts were obtained to measure the retinal ganglion cell (RGC) counts. To obtain immunostained retinal flat mounts, the animals were euthanized after the treatments and then their eyes were enucleated. The eye cups were fixed overnight at 4° C. in 4% paraformaldehyde (PFA) and retinal flat mounts were prepared for collecting images. The retinal ganglion cell (RGC) counting was conducted using the images of immunostained retinal flat mounts. The images were uploaded to ImageJ, a photo editor designed for biology research (Rasband, 1997-2018) and the labeled retinal ganglion cells were counted manually in two eccentricities (central and peripheral).
Pattern ERG (PERG) was used to assess the RGC function. […] Briefly, PERG signals were acquired from a DTL-plus electrode placed on the lower part of the corneal surface and the PERG waves were analyzed using the EMWIN software (LKC). The difference between the amplitude of the major positive (P1) and negative (N2) waves were calculated to decipher the PERG amplitude.

[2] = system: laser-induced glaucoma model; assay: Laser-induced non-human primate glaucoma model, ONH blood flow by LSFG after IVT administration; format: in vivo, rhesus macaque, Macaca Mulatta
Method: Non-human primates (rhesus macaque, Macaca Mulatta) were obtained for this study. One eye of each animal underwent induction of elevation of intraocular pressure (IOP) by repeated laser photocoagulation of the trabecular meshwork. Imaging sessions were repeated to monitor the optic nerve head (ONH) and retinal structural changes. A study was performed to compare an experimental glaucoma eye and a contralateral healthy eye (control) of three non-human primates in global average mean blur rate (MBR) and MBR change from baseline over time as an index of ONH blood flow in a laser-induced glaucoma model. More specifically, a vehicle control, 0.02 mg/mL of Edonentan, 0.2 mg/mL of Edonentan, or 2.0 mg/mL of Edonentan was intravitreally administered ([…]) to a glaucomatous eye of each of three non-human primates (rhesus macaque, Macaca Mulatta). These graphs show the ONH blood flow in the three non-human primates after IVT administration of a vehicle alone (FIG. 7A, FIG. 7E, and FIG. 7I), 0.02 mg/mL of Edonentan (FIG. 7B, FIG. 7F, and FIG. 7J), 0.2 mg/mL of Edonentan (FIG. 7C, FIG. 7G, and FIG. 7K) or 2.0 mg/mL of Edonentan (FIG. 7D, FIG. 7H, and FIG. 7L). […] In one of the above three non-human primates, an LSFG scan was performed at various selected time points when Edonentan was administered at 2.0 mg/mL.

ETA = molecular target: T1, ETA (Homo sapiens, UniProt P25101); assay: Functional potency for ETA receptor; format: biochemical
T1 sequence (P25101 21-427): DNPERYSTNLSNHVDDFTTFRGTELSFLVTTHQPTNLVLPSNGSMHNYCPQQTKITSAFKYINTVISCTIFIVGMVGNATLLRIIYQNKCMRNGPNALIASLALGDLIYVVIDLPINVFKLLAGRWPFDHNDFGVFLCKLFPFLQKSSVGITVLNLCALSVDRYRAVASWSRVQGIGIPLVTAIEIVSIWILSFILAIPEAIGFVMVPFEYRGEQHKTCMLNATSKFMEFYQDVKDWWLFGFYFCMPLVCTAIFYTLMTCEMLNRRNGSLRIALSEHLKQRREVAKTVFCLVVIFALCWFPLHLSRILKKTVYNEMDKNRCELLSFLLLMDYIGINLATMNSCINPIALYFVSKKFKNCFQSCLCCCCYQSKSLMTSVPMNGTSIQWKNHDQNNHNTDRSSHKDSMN
From the text: In the above table, the physicochemical data, e.g., solubility, were obtained following standard protocols known in the field (see, e.g., Reis et al., Mini Rev Med Chem., 2010, 10(11):1071-6; Avdeef et al., Expert Opin Drug Metab Toxicol., 2005, 1(2):325-42; Bharate et al., Comb Chem High Throughput Screen., 2016, 19(6):461-9; and Jain et al., J Pharm Biomed Anal., 2013, 86:11-35.); and the biochemical data, i.e., potency for ETA/ETB, were obtained following the protocols known in the field (see, e.g., Kirkby et al., Br J Pharmacol., 2008, 153(6):1105-19; and Maguire et al., Br J Pharmacol., 2014, 171(24):5555-72.).

Cc1onc(NS(=O)(=O)c2ccccc2-c2ccc(-c3ncco3)cc2CN(C)C(=O)CC(C)(C)C)c1C [Edonentan, N-[[2′-[[(4,5-dimethyl-3-isoxazolyl)amino]sulfonyl]-4-(2-oxazolyl)[1,1′-biphenyl]-2-yl]methyl]-N,3,3-trimethylbutanamide]
Pattern electroretinogram (PERG) changes, RGC function [1]: maintained RGC function
Retinal ganglion cell (RGC) counts in the peripheral retina [1]: prevented RGC loss
ONH blood flow (global average MBR, LSFG), individual animals ([2]; IVT 0.02, 0.2 or 2.0 mg/mL Edonentan, glaucomatous eye, over 6 hours): improvement of ONH blood flow in a dose-dependent manner
ONH blood flow, aggregate of three non-human primates ([2]; IVT 0.02, 0.2 or 2.0 mg/mL, experimental glaucoma eyes vs control eyes): does-related increase of ONH blood flow
Functional potency for ETA and ETB receptors, rating in words (ETA): High potency
Specificity ETA versus ETB, rating in words (ETA; ETA vs ETB): High specificity
